Where two headings read alike, the source gives them in different places.
Biological target: T1, human M2 receptor (Homo sapiens, UniProt P08172)
T1 sequence (P08172 1-466): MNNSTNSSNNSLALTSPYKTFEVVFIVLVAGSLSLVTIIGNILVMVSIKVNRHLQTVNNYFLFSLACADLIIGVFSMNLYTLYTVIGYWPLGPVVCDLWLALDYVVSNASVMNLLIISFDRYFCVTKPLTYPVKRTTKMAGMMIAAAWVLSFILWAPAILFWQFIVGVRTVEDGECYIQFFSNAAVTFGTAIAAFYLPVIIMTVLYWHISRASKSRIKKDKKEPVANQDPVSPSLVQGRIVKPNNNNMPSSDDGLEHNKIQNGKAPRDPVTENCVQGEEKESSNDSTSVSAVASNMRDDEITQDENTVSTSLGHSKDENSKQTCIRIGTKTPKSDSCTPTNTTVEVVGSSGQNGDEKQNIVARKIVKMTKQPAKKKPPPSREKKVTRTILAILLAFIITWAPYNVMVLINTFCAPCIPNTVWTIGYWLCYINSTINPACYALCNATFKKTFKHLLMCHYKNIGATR

[1] = Receptor activity EC50, M2-GIRK1/4 activation test, acetylcholine at EC20, allosteric potency, in some cases mean values from two or more determinations
[2] = Receptor activity EC50, allosteric potency at EC20 acetylcholine, M2-GIRK1/4 reporter cells, in some cases mean of two or more determinations
[3] = read-out: Efficiency, boosting of the acetylcholine effect at EC20 acetylcholine concentration, M2-GIRK1/4 reporter cells

Row | Compound | EC50 [1] [nM] | EC50 [2] [nM] | Emax [3] [%] | also measured
1 | CC(C)Nc1ccc2c(=O)c(C(=O)NC34CC5CC(CC(C5)C3)C4)cn(-c3ccc(F)cc3F)c2n1 [Example 158, 1-(2,4-Difluorophenyl)-4-oxo-7-(propan-2-ylamino)-N-(tricyclo[3.3.1.1^3,7]dec-1-yl)-1,4-dihydro-1,8-naphthyridine-3-carboxamide] | 184 |  |  | 
2 | O=C(NC(c1c(F)cccc1F)C(F)(F)F)c1cn(-c2ccc(F)cc2F)c2nc(N3CCCC(O)C3=O)ccc2c1=O (single isomer, unassigned) [Example 249, 1-(2,4-Difluorophenyl)-N-[1-(2,6-difluorophenyl)-2,2,2-trifluoroethyl]-7-[3-hydroxy-2-oxopiperidin-1-yl]-4-oxo-1,4-dihydro-1,8-naphthyridine-3-carboxamide] | 505 |  |  | 
3 | CN(CC(F)F)c1ccc2c(=O)c(C(=O)NC(C(F)(F)F)C(F)(F)F)cn(-c3ccc(F)cc3F)c2n1 [Example 115, 7-[(2,2-Difluoroethyl)(methyl)amino]-1-(2,4-difluorophenyl)-N-[1,1,1,3,3,3-hexafluoropropan-2-yl)-4-oxo-1,4-dihydro-1,8-naphthyridine-3-carboxamide] | 73 |  |  | 
4 | O=C(NC(c1c(F)cccc1F)C(F)(F)F)c1cn(-c2ccc(F)cc2F)c2nc(N3CCCC(O)C3=O)ccc2c1=O (stereo not shown) [Example 247, 1-(2,4-Difluorophenyl)-N-[1-(2,6-difluorophenyl)-2,2,2-trifluoroethyl]-7-[3-hydroxy-2-oxopiperidin-1-yl]-4-oxo-1,4-dihydro-1,8-naphthyridine-3-carboxamide] | 160 |  |  | 
5 | CNc1ccc2c(=O)c(C(=O)NC34CC5CC(C3)CC(C(F)(F)F)(C5)C4)cn(-c3ccc(F)cc3F)c2n1 [Example 160, 1-(2,4-Difluorophenyl)-7-(methylamino)-4-oxo-N-[3-(trifluoromethyl)tricyclo[3.3.1.1^3,7]dec-1-yl]-1,4-dihydro-1,8-naphthyridine-3-carboxamide] | 85 |  |  | 
6 | CCC(NC(=O)c1cn(-c2c(F)cc(F)cc2F)c2nc(N3C[C@@H](O)[C@H](O)C3)ccc2c1=O)C(F)(F)C(F)(F)F (mixture of isomers) [Example 522, 7-[(3R,4R)-3,4-Dihydroxypyrrolidin-1-yl]-4-oxo-N-[1,1,1,2,2-pentauoropentan-3-yl]-1-(2,4,6-trifluorophenyl)-1,4-dihydro-1,8-naphthyridine-3-carboxamide] |  |  |  | Emax (read-out: Efficiency): 92.8%
7 | NC(=O)N1CCN(c2ccc3c(=O)c(C(=O)N[C@H](C4CC4)C(F)(F)F)cn(-c4c(F)cc(F)cc4F)c3n2)CC1 [Example 650, 7-(4-Carbamoylpiperazin-1-yl)-N-[(1R)-1-cyclopropyl-2,2,2-trifluoroethyl]-4-oxo-1-(2,4,6-trifluorophenyl)-1,4-dihydro-1,8-naphthyridine-3-carboxamide] |  | 83 | 100 | 
8 | CN(C)c1ccc2c(=O)c(C(=O)NC34CCC(F)(CC3)CC4)cn(-c3ccc(F)cc3F)c2n1 [Example 47, 1-(2,4-Difluorophenyl)-7-(dimethylamino)-N-(4-fluorobicyclo[2.2.2]oct-1-yl)-4-oxo-1,4-dihydro-1,8-naphthyridine-3-carboxamide] | 43 |  |  | 
9 | CC1(O)CCCN(c2ccc3c(=O)c(C(=O)NC45CC6CC(CC(C6)C4)C5)cn(-c4ccc(F)cc4F)c3n2)C1 (racemic) [Example 119, rac-1-(2,4-Difluorophenyl)-7-(3-hydroxy-3-methylpiperidin-1-yl)-4-oxo-N-(tricyclo[3.3.1.1^3,7]dec-1-yl)-1,4-dihydro-1,8-naphthyridine-3-carboxamide] | 90 |  |  | 
10 | CC[C@@H](NC(=O)c1cn(-c2c(Cl)cc(F)cc2Cl)c2nc(N3C[C@@H](O)CC3=O)ccc2c1=O)C(F)(F)F [Example 388, 1-(2,6-Dichloro-4-fluorophenyl)-7-[(4S)-4-hydroxy-2-oxopyrrolidin-1-yl]-4-oxo-N-[(2R)-1,1,1-trifluorobutan-2-yl]-1,4-dihydro-1,8-naphthyridine-3-carboxamide] | 52 |  |  | Emax (read-out: Efficiency): 89%
11 | CC(NC(=O)c1cn(-c2c(F)cc(F)cc2F)c2nc(N3CCNC3=O)ccc2c1=O)(C(F)(F)F)C(F)(F)F [Example 581, N-(1,1,1,3,3,3-Hexafluoro-2-methylpropan-2-yl)-4-oxo-7-(2-oxoimidazolidin-1-yl)-1-(2,4,6-trifluorophenyl)-1,4-dihydro-1,8-naphthyridine-3-carboxamide] |  | 14 | 98 | 
12 | CCC(COC(F)(F)F)NC(=O)c1cn(-c2c(F)cc(F)cc2F)c2nc(N3C[C@@H](C)NC3=O)ccc2c1=O (mixture of isomers) [Example 453, 7-[(4R)-4-Methyl-2-oxoimidazolidin-1-yl]-4-oxo-N-[(2S)-1-(trifluoromethoxy)butan-2-yl]-1-(2,4,6-trifluorophenyl)-1,4-dihydro-1,8-naphthyridine-3-carboxamide] |  | 11 | 98.5 | 

The next lines start with results.

Row | EC50 [1] [nM] | EC50 [2] [nM] | Emax [3] [%] | Compound | also measured
13 | 73 |  |  | CC[C@H](NC(=O)c1cn(-c2ccc(F)cc2F)c2nc(N3CCC(F)(F)C3)ccc2c1=O)C(F)(F)F [Example 75, 1-(2,4-Difluorophenyl)-7-(3,3-difluoropyrrolidin-1-yl)-4-oxo-N-[(2S)-1,1,1-trifluorobutan-2-yl]-1,4-dihydro-1,8-naphthyridine-3-carboxamide] | 
14 |  | 42 | 89 | O=C(NC(c1ccccc1Cl)C(F)(F)F)c1cn(-c2c(F)cc(F)cc2F)c2nc(N3CCNC3=O)ccc2c1=O (single isomer, unassigned) [Example 564, N-[1-(2-Chlorophenyl)-2,2,2-trifluoroethyl]-4-oxo-7-(2-oxoimidazolidin-1-yl)-1-(2,4,6-trifluorophenyl)-1,4-dihydro-1,8-naphthyridine-3-carboxamide] | 
15 |  | 14 | 96 | CC(C)C(NC(=O)c1cn(-c2c(F)cc(F)cc2F)c2nc(N3C[C@@H](O)[C@H](O)C3)ccc2c1=O)C(F)(F)F (mixture of isomers) [Example 552, 7-[(3R,4R)-3,4-Dihydroxypyrrolidin-1-yl]-4-oxo-N-[1,1,1-trifluoro-3-methylbutan-2-yl]-1-(2,4,6-trifluorophenyl)-1,4-dihydro-1,8-naphthyridine-3-carboxamide] | 
16 | 56 |  |  | C[C@H](NC(=O)c1cn(-c2c(F)cc(F)cc2F)c2nc(N3CCNC3=O)ccc2c1=O)C(F)(F)F [Example 341, 4-Oxo-7-(2-oxoimidazolidin-1-yl)-1-(2,4,6-trifluorophenyl)-N-[(2S)-1,1,1-trifluoropropan-2-yl]-1,4-dihydro-1,8-naphthyridine-3-carboxamide] | 
17 | 61 |  |  | CC[C@H](NC(=O)c1cn(-c2c(F)cccc2F)c2nc(N3C[C@@H](O)[C@H](O)C3)ccc2c1=O)C(F)(F)F [Example 348, 1-(2,6-Difluorophenyl)-7-[(3R,4R)-3,4-dihydroxypyrrolidin-1-yl]-4-oxo-N-[(2S)-1,1,1-trifluorobutan-2-yl]-1,4-dihydro-1,8-naphthyridine-3-carboxamide] | 
18 |  | 10 | 100 | O=C(N[C@@H](C1CC1)C(F)(F)F)c1cn(-c2c(F)cc(F)cc2Cl)c2nc(N3C[C@@H](O)[C@H](O)C3)ccc2c1=O [Example 546, 1-(2-Chloro-4,6-difluorophenyl)-N-[(1 S)-1-cyclopropyl-2,2,2-trifluoroethyl]-7-[(3R,4R)-3,4-dihydroxypyrrolidin-1-yl]-4-oxo-1,4-dihydro-1,8-naphthyridine-3-carboxamide] | 
19 | 73 |  |  | CC[C@@H](NC(=O)c1cn(-c2c(F)cccc2F)c2nc(N3CCC(O)C3=O)ccc2c1=O)C(F)(F)F (single isomer, unassigned) [Example 293] | 
20 |  | 89 | 80 | CC[C@@H](NC(=O)c1cn(-c2c(Cl)cccc2Cl)c2nc(N3CC4CC4(O)C3)ccc2c1=O)C(F)(F)F (stereo partly drawn) [Example 652, 1-(2,6-Dichlorophenyl)-7-[1-hydroxy-3-azabicyclo[3.1.0]hex-3-yl]-4-oxo-N-[(2R)-1,1,1-trifluorobutan-2-yl]-1,4-dihydro-1,8-naphthyridine-3-carboxamide] | 
21 | 42 |  |  | O=C(N[C@H](C1CC1)C(F)(F)F)c1cn(-c2c(Cl)cc(F)cc2Cl)c2nc(N3C[C@@H](O)CC3=O)ccc2c1=O [Example 387, N-[(1R)-1-Cyclopropyl-2,2,2-trifluoroethyl]-1-(2,6-dichloro-4-fluorophenyl)-7-[(4S)-4-hydroxy-2-oxopyrrolidin-1-yl]-4-oxo-1,4-dihydro-1,8-naphthyridine-3-carboxamide] | 
22 | 280 |  |  | CC[C@@H](NC(=O)c1cn(-c2c(F)cccc2F)c2nc(N3CC(CO)OC3=O)ccc2c1=O)C(F)(F)F (mixture of isomers) [Example 260, rac-1-(2,6-Difluorophenyl)-7-[5-(hydroxymethyl)-2-oxo-1,3-oxazolidin-3-yl]-4-oxo-N-[(2R)-1,1,1-trifluorobutan-2-yl]-1,4-dihydro-1,8-naphthyridine-3-carboxamide] | 
23 | 50 |  |  | CC[C@H](NC(=O)c1cn(-c2ccc(F)cc2F)c2nc(N(C)CCF)ccc2c1=O)C(F)(F)F [Example 103, 1-(2,4-Difluorophenyl)-7-[(2-fluoroethyl)(methyl)amino]-4-oxo-N-[(2S)-1,1,1-trifluorobutan-2-yl]-1,4-dihydro-1,8-naphthyridine-3-carboxamide] | 
